Measurements as given in patent EP4321023A1, “MOSQUITO REPELLENT COMPOSITION COMPRISING YARROW ESSENTIAL OIL” (National Hellenic Research Foundation, priority 2022, dated 2024).

Key:
Epiderm™ tissues = test: EpiDerm skin irritation test (EPI-200-SIT), MTT tissue viability; assay type: cell-based, human
Source text: The EpiDerm™ skin irritation test kit (Schafer-Korting, Bock et al., 2008) (EPI-200-SIT) was purchased by MatTek (https://www.mattek.com/) and used in this study. The value of this method lies in that it provides in vivo prediction for classification testing of the nano-emulsions as irritant or non-irritant, based on in vitro results. According to the EU and GHS classification (R38/ Category 2 or no label), an irritant is predicted if the mean relative tissue viability of individual tissues exposed to the test substance is reduced below 50% of the mean viability of the negative controls run in parallel.
The experimental procedure for the skin irritation test is the following. Fresh tissues are transferred onto 6-well plates and pre-incubated under standard culture conditions for 1 hour in the assay medium (DMEM based medium, MatTek). Then, the assay medium is replaced by fresh assay medium, and tissues are incubated overnight. […] Then, the blue formazan salt formed by cellular mitochondria is extracted with 2.0 ml/tissue of isopropanol (extractant solution, part # MTT-100-EXT) and the optical density of the extracted formazan is determined at 570 nm using a spectrophotometer. Relative tissue viability is calculated for each tissue as % of the mean viability of the negative control tissues. […]

EpiOcular™ tissues = assay type: cell-based; details: human, 30 min, 200 µg EO/cm^2
Experimental: The EpiOcular™ eye irritation test (Stern, Klausner et al., 1998) (OCL-200-EIT) purchased by MatTek was used in this study to evaluate the eye irritation potential of nano-emulsion 1 of Example 2 (Yarrow essential oil (2% Achillea millefolium essential oil)) or of nano-emulsion 2 of Example 2 (mixture of 1% Yarrow essential oil (Achillea millefolium essential oil) with 1% Lavandin oil (Hybrid Lavandula intermedia essential oil) [1:1 w/w]).
Fresh tissues are equilibrated at RT for 15 min, then, transferred onto 6-well plates and pre-incubated at standard culture conditions for 1 hour in assay medium, which is DMEM based medium (MatTek), then, replaced, and tissues are incubated overnight under standard culture conditions. The tissues are prehydrated with Ca^++Mg^++Free-DPBS and incubated at standard culture conditions for 30±2 min. Each nano-emulsion (dose: 200 µg EO/cm^2) and control samples are applied topically on the EpiOcular™ tissues. The tissues are incubated for 30±2 min followed by removal of the nano-emulsions by extensive rinsing of the tissues with Ca^++Mg^++Free-DPBS. […] Finally, the MTT assay is performed, and the relative tissue viability is calculated for each tissue as % of the mean viability of the negative control tissues. […]

3D human skin tissues = test: Histological analysis (eosin and hematoxylin) after 48 h topical application; assay type: cell-based; details: dose 200 µg EO/cm^2, 48 hours; Figure 8
Experimental: Following topical application of nano-emulsion 1 of Example 2 (Yarrow essential oil (2% Achillea millefolium essential oil)) or of nano-emulsion 2 of Example 2 (mixture of 1% Yarrow essential oil (Achillea millefolium essential oil) with 1% Lavandin oil (Hybrid Lavandula intermedia essential oil) [1:1 w/w]) on 3D human skin tissues, for 48 hours, skin specimens are collected and further processed for: [1] histological analysis (Furio, Pampalakis et al., 2015) and [2] molecular analysis.
First, 3D-reconstructed human skin tissue culture media is replaced with fresh, pre-warmed media. Under sterile conditions, tissues are exposed topically to each test nano-emulsion (dose, 200 µg EO/cm^2). 5% SDS a widely known skin irritant was used as positive control. […] Alternatively, total RNA was extracted from 3D human skin tissues (Macherey-Nagel) to quantify relative expression of tight junction proteins with the aim to test for potential alterations in expression levels (Figure 9 ). Then, synthesized cDNAs (SuperScript™ First-Strand Synthesis System for RT-PCR, Invitrogen) were used as template for RT-qPCR (SYBR™ Select, Applied Biosystems) to quantify the relative expression levels of tight junction proteins encoding genes using the gene-specific primers enlisted in Table 8. […]

COC(C)=O [PC, methyl acetate]
Classification (Epiderm™ tissues; skin irritation, prediction model developed by MatTek): I, qualified (I, irritant)
Mean of viabilities, % (Epiderm™ tissues; skin, dose 200 µg EO/cm^2, 60±1 min exposure, % of mean viability of negative control, 2 tissues): 2.828%
Mean of viabilities, % (EpiOcular™ tissues): 13.46%
skin morphology by eosin and hematoxylin staining (3D human skin tissues): high degree of damage
